Data: the supplement of paper PMC5579334

How the values were obtained:
[1] = tested on: HS-PSS; assay: % inhibition of CellTiter-Glo viability at highest tested concentration (72 h), relative to DMSO and benzethonium chloride controls; higher = more inhibition
Summary of the method: (§1)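 MPNST cell lines and primary human Schwann cells (750–1000 cells per well) went into 384-well plates preprinted with each compound at five concentrations in 10-fold steps. Plates were incubated 72 h at 37 °C, 5% CO2. Viability was read as CellTiter-Glo ATP luminescence, scaled between vehicle and positive-control wells, with duplicates averaged where present. Percent inhibition is at the top concentration; drug sensitivity score and relative IC50 (censored at top concentration) come from four-parameter logistic fits.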

[2] = tested on: HS-Sch-2; assay: as above
Summary of the method: as §1

[3] = tested on: YST-1; assay: as above
Summary of the method: as §1

[4] = tested on: HS-PSS; assay: drug sensitivity score (DSS, CellTiter-Glo viability, 72 h) (DSS (dimensionless)); higher = more sensitive; extreme values may be limits of the assay
Summary of the method: as §1

[5] = tested on: HS-Sch-2; assay: as above
Summary of the method: as §1

[6] = tested on: YST-1; assay: as above
Summary of the method: as §1

[7] = tested on: HS-PSS; assay: drug sensitivity score (DSS, CellTox-Green cytotoxicity, 72 h) (DSS (dimensionless)); higher = more cytotoxic; extreme values may be limits of the assay
Summary of the method: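 MPNST cell lines and primary human Schwann cells were incubated 72 h at 37 °C in 384-well plates holding five 10-fold compound dilutions. CellTox-Green was added before seeding at a final 1:1000 dilution and reported fluorescence from DNA released by disrupted cells. Signals were scaled to vehicle and positive-control wells, and cultures failing plate quality control were dropped. Drug sensitivity score and relative IC50 come from four-parameter logistic fits, with IC50 censored at the top concentration.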

SMILES	% inhibition [1] [%]	% inhibition [2] [%]	% inhibition [3] [%]	drug sensitivity score [4]	drug sensitivity score [5]	drug sensitivity score [6]	drug sensitivity score [7]
CN(C)C(=O)c1cc2cnc(Nc3ccc(N4CCNCC4)cn3)nc2n1C1CCCC1 [Ribociclib] (max concentration tested 10000 nM)	28.2	25.4	67	1.83	1.85	6.07	0
N[C@@H]1CCCN(c2c(/C=C3\SC(=O)NC3=O)cccc2-c2ccccc2)C1 [AZD1208] (max concentration tested 10000 nM)	-5.48	-3.67	38.7	0	0	7.54	0
Cc1nc(N)sc1-c1ccnc(Nc2ccc(N3CCOCC3)cc2)n1 [CYC-116] (max concentration tested 10000 nM)	65.9	54.2	58.8	6.5	4.97	8.36	0
CCCCCCCCCCCCCCCCCCOP(=O)([O-])OC1CC[N+](C)(C)CC1 [Perifosine] (max concentration tested 2500 nM)	0.4	4.74	-0.19	0	0	0	0
Cc1c(C(=O)Nc2ccc(N3C[C@@H](C)O[C@@H](C)C3)nc2)cccc1-c1ccc(OC(F)(F)F)cc1 [Sonidegib] (max concentration tested 10000 nM)	30.6	22.7	8.09	3.23	1.21	0	0
C=CC(=O)Nc1cccc(Nc2nc(Nc3ccc(OCCOC)cc3)ncc2F)c1 [Spebrutinib] (max concentration tested 1000 nM)	20.7	12.6	15.3	0.48	0.45	0.89	0
CCN(c1cc(-c2ccc(CN3CCOCC3)cc2)cc(C(=O)NCc2c(C)cc(C)[nH]c2=O)c1C)C1CCOCC1 [Tazemetostat] (max concentration tested 10000 nM)	10.9	12.6	0.37	0.52	0.07	0	0
O=C(c1ccc(/C=C/c2n[nH]c3ccccc23)cc1)N1CCNCC1 [KW-2449] (max concentration tested 2500 nM)	10.1	0.48	30.9	0	0	2.08	0
COc1ccc(C[C@H](NC(=O)[C@H](C)NC(=O)CN2CCOCC2)C(=O)N[C@@H](Cc2ccccc2)C(=O)[C@@]2(C)CO2)cc1 [ONX-0914] (max concentration tested 10000 nM)	100	101	101	17.6	21.7	18.1	17.5
COc1ccc(Cl)c(Nc2nc3ccccc3nc2NS(=O)(=O)c2cccc(NC(=O)C(C)(C)N)c2)c1 [Pilaralisib] (max concentration tested 2500 nM)	7.45	14.3	42.6	0	0.34	2.53	0
CC(C)NC(=O)COc1cccc(-c2nc(Nc3ccc4[nH]ncc4c3)c3ccccc3n2)c1 [SLx-2119] (max concentration tested 5000 nM)	48.7	29.4	83.7	3.67	2.63	13.6	0
CCc1cc(Nc2nccc(-c3c(-c4ccc(OC)c(C(=O)Nc5c(F)cccc5F)c4)nc4ccccn34)n2)c(OC)cc1N1CCC(N2CCN(S(C)(=O)=O)CC2)CC1 (max concentration tested 10000 nM)	4.32	7.21	52.3	0	0.89	16.1	0
COc1cccc2c1C(=O)c1c(O)c3c(c(O)c1C2=O)C[C@@](O)(/C(CO)=N/NC(=O)CCCCCN1C(=O)C=CC1=O)C[C@@H]3O[C@H]1C[C@H](N)[C@H](O)[C@H](C)O1 [Aldoxorubicin] (max concentration tested 1000 nM)	97.2	101	101	9.01	11	14.4	2.15
O=C(Nc1ccc(-c2ccnc(Nc3ccc(N4CCOCC4)cc3)n2)cc1)[C@H]1CCCN1 [XL019] (max concentration tested 10000 nM)	32.7	22.7	24.9	1.67	1.09	1.13	0
C#Cc1cccc(Nc2ncnc3cc4c(cc23)OCCOCCOCCO4)c1 [Icotinib] (max concentration tested 10000 nM)	16.4	19.6	23.8	0.72	1.37	1.96	0
COc1ccc(Cn2ccc3ccc(C(=O)NO)cc32)cc1 (max concentration tested 10000 nM)	18.1	46.8	56.2	0.33	2.02	5.14	0
